In US8426345B2, “Method of drug design” (Alchemia Limited, priority 2005, dated 2013):

Target: T1, Human SST5 somatostatin receptor (Homo sapiens, UniProt P35346)
T1 construct: expressed in transfected cells; host or cells: HEK-293 EBNA cells (membranes)
Experiment: Filter plate radio-ligand binding assay for SST5 receptor ([125I]SST-14 displacement)
Details: 3P library; for % SST5 radio-ligand binding displaced at conc 10: conc 10 μM; for % SST5 radio-ligand binding displaced at conc 0.001: conc 0.001 μM; for % SST5 radio-ligand binding displaced at conc 0.10: conc 0.10 μM; for % SST5 radio-ligand binding displaced at conc 0.5: conc 0.5 μM; for % SST5 radio-ligand binding displaced at conc 1.0: conc 1.0 μM; for % SST5 radio-ligand binding displaced at conc 0.25: conc 0.25 μM

T1 sequence (P35346 whole entry): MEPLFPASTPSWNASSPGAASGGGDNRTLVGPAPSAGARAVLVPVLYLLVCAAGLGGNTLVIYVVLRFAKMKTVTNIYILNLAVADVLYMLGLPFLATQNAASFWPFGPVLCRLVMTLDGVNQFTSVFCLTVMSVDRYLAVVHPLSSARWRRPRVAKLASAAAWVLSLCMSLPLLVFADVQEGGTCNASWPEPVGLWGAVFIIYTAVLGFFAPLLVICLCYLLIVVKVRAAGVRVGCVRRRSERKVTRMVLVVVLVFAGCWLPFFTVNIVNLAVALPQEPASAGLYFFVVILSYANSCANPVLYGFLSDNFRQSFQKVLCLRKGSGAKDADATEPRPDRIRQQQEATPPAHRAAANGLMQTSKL

| SMILES | % SST5 radio-ligand binding displaced at conc 10 | % SST5 radio-ligand binding displaced at conc 0.001 | % SST5 radio-ligand binding displaced at conc 0.10 | % SST5 radio-ligand binding displaced at conc 0.5 | % SST5 radio-ligand binding displaced at conc 1.0 | % SST5 radio-ligand binding displaced at conc 0.25 |
| --- | --- | --- | --- | --- | --- | --- |
| COCC1OC(OCc2ccc3ccccc3c2)C(NC(=O)CCCN)C(OCc2ccc(-c3ccccc3)cc2)C1O (mixture of isomers) [Compound 131] | ++ (% SST5 radio-ligand binding displaced at conc (μM) >60%) |  |  |  |  |  |
| COCC1OC(OCc2ccc3ccccc3c2)C(NC(=O)CCCN)C(OCc2ccc3ccccc3c2)C1O (mixture of isomers) [Compound 132] | ++ (% SST5 radio-ligand binding displaced at conc (μM) >60%) |  |  |  |  |  |
| COCC1OC(OCc2ccc3ccccc3c2)C(NC(=O)CCCN)C(OCc2ccc(Cl)cc2)C1O (mixture of isomers) [Compound 133] | ++ (% SST5 radio-ligand binding displaced at conc (μM) >60%) |  |  |  |  |  |
| COCC1OC(OCc2ccc(Cl)cc2)C(NC(=O)CN)C(OCc2ccccc2)C1O (mixture of isomers) [Compound 160] | − (% SST5 radio-ligand binding displaced at cone (μM) −<40%) | − (% SST5 radio-ligand binding displaced at cone (μM) −<40%) | − (% SST5 radio-ligand binding displaced at cone (μM) −<40%) | − (% SST5 radio-ligand binding displaced at cone (μM) −<40%) | − (% SST5 radio-ligand binding displaced at cone (μM) −<40%) |  |
| COCC1OC(OCc2ccc(Cl)cc2)C(NC(=O)CN)C(OCc2ccc(Cl)cc2)C1O (mixture of isomers) [Compound 161] | ++ (% SST5 radio-ligand binding displaced at conc (μM) >60%) | − (% SST5 radio-ligand binding displaced at cone (μM) −<40%) | − (% SST5 radio-ligand binding displaced at cone (μM) −<40%) | − (% SST5 radio-ligand binding displaced at cone (μM) −<40%) | − (% SST5 radio-ligand binding displaced at cone (μM) −<40%) |  |
| COCC1OC(OCc2ccc(Cl)cc2)C(NC(=O)CN)C(OCc2ccc(-c3ccccc3)cc2)C1O (mixture of isomers) [Compound 162] | + (% SST5 radio-ligand binding displaced at cone (μM) 60>+>40%) | − (% SST5 radio-ligand binding displaced at cone (μM) −<40%) | − (% SST5 radio-ligand binding displaced at cone (μM) −<40%) | − (% SST5 radio-ligand binding displaced at cone (μM) −<40%) | − (% SST5 radio-ligand binding displaced at cone (μM) −<40%) | − (% SST5 radio-ligand binding displaced at cone (μM) −<40%) |
| COCC1OC(OCc2ccc(Cl)cc2)C(NC(=O)CN)C(OCc2ccc3ccccc3c2)C1O (mixture of isomers) [Compound 163] | ++ (% SST5 radio-ligand binding displaced at conc (μM) >60%) | − (% SST5 radio-ligand binding displaced at cone (μM) −<40%) | − (% SST5 radio-ligand binding displaced at cone (μM) −<40%) | − (% SST5 radio-ligand binding displaced at cone (μM) −<40%) | − (% SST5 radio-ligand binding displaced at cone (μM) −<40%) |  |
| COC1C(O)C(COCc2ccc3ccccc3c2)OC(OCc2ccc(Cl)cc2)C1NC(=O)C1CCCN1 (mixture of isomers) [Compound 165] | ++ (% SST5 radio-ligand binding displaced at conc (μM) >60%) |  |  | − (% SST5 radio-ligand binding displaced at cone (μM) −<40%) |  |  |
| COC1C(O)C(COCc2ccc3ccccc3c2)OC(OCc2ccc(Cl)cc2)C1NC(=O)C1CCCN1 (mixture of isomers) [Compound 167] | ++ (% SST5 radio-ligand binding displaced at conc (μM) >60%) |  |  | ++ (% SST5 radio-ligand binding displaced at conc (μM) >60%) |  |  |
| COCC1OC(OCc2ccc(Cl)cc2)C(NC(=O)CN)C(OCc2ccc(-c3ccccc3)cc2)C1O (mixture of isomers) [Compound 173] |  |  |  |  | − (% SST5 radio-ligand binding displaced at cone (μM) −<40%) | − (% SST5 radio-ligand binding displaced at cone (μM) −<40%) |
| COCC1OC(OCc2ccc(Cl)cc2)C(NC(=O)CN)C(OCc2ccc3ccccc3c2)C1O (mixture of isomers) [Compound 174] |  |  |  |  | − (% SST5 radio-ligand binding displaced at cone (μM) −<40%) | − (% SST5 radio-ligand binding displaced at cone (μM) −<40%) |
| COCC1OC(OCc2ccc(Cl)cc2)C(NC(=O)CN)C(OCc2ccc3ccccc3c2)C1O (mixture of isomers) [Compound 175] |  |  |  |  | − (% SST5 radio-ligand binding displaced at cone (μM) −<40%) | − (% SST5 radio-ligand binding displaced at cone (μM) −<40%) |
| COC1C(O)C(COCc2ccccc2)OC(OCc2ccc(Cl)cc2)C1NC(=O)CN (mixture of isomers) [Compound 176] |  |  |  |  | − (% SST5 radio-ligand binding displaced at cone (μM) −<40%) | − (% SST5 radio-ligand binding displaced at cone (μM) −<40%) |
| COC1C(O)C(COCc2ccc(Cl)cc2)OC(OCc2ccc(Cl)cc2)C1NC(=O)CN (mixture of isomers) [Compound 177] |  |  |  |  | − (% SST5 radio-ligand binding displaced at cone (μM) −<40%) | − (% SST5 radio-ligand binding displaced at cone (μM) −<40%) |
| COC1C(O)C(COCc2ccc(-c3ccccc3)cc2)OC(OCc2ccc(Cl)cc2)C1NC(=O)CN (mixture of isomers) [Compound 178] |  |  |  |  | − (% SST5 radio-ligand binding displaced at cone (μM) −<40%) | − (% SST5 radio-ligand binding displaced at cone (μM) −<40%) |
| COC1C(O)C(COCc2ccc3ccccc3c2)OC(OCc2ccc(Cl)cc2)C1NC(=O)CN (mixture of isomers) [Compound 179] |  |  |  |  | − (% SST5 radio-ligand binding displaced at cone (μM) −<40%) | − (% SST5 radio-ligand binding displaced at cone (μM) −<40%) |
| COC[C@H]1OC(OCc2ccc3ccccc3c2)[C@H](NC(=O)CCN)[C@@H](OCc2ccccc2)[C@@H]1O (single isomer, unassigned) [Compound 87] |  |  |  |  | − (% SST5 radio-ligand binding displaced at cone (μM) −<40%) | − (% SST5 radio-ligand binding displaced at cone (μM) −<40%) |
| COC[C@H]1OC(OCc2ccc3ccccc3c2)[C@H](NC(=O)CCN)[C@@H](OCc2ccccc2)[C@@H]1O (single isomer, unassigned) [Compound 88] |  |  |  |  | − (% SST5 radio-ligand binding displaced at cone (μM) −<40%) | − (% SST5 radio-ligand binding displaced at cone (μM) −<40%) |
| COC[C@H]1OC(OCc2ccc3ccccc3c2)[C@H](NC(=O)CCN)[C@@H](OCc2ccc(Cl)cc2)[C@@H]1O (single isomer, unassigned) [Compound 89] |  |  |  |  | − (% SST5 radio-ligand binding displaced at cone (μM) −<40%) | − (% SST5 radio-ligand binding displaced at cone (μM) −<40%) |
| COC[C@H]1OC(OCc2ccc3ccccc3c2)[C@H](NC(=O)CCN)[C@@H](OCc2ccc(Cl)cc2)[C@@H]1O (single isomer, unassigned) [Compound 90] |  |  |  |  | ++ (% SST5 radio-ligand binding displaced at conc (μM) >60%) | + (% SST5 radio-ligand binding displaced at cone (μM) 60>+>40%) |
| COC[C@H]1OC(OCc2ccc3ccccc3c2)[C@H](NC(=O)CCN)[C@@H](OCc2ccc(-c3ccccc3)cc2)[C@@H]1O (single isomer, unassigned) [Compound 91] |  |  |  |  | − (% SST5 radio-ligand binding displaced at cone (μM) −<40%) | − (% SST5 radio-ligand binding displaced at cone (μM) −<40%) |
| COC[C@H]1OC(OCc2ccc3ccccc3c2)[C@H](NC(=O)CCN)[C@@H](OCc2ccc3ccccc3c2)[C@@H]1O (single isomer, unassigned) [Compound 92] |  |  |  |  | + (% SST5 radio-ligand binding displaced at cone (μM) 60>+>40%) | − (% SST5 radio-ligand binding displaced at cone (μM) −<40%) |
| COC1C(O)C(COCc2ccc(Cl)cc2)OC(OCc2ccc3ccccc3c2)C1NC(=O)CCN (single isomer, unassigned) [Compound 94] |  |  |  |  | − (% SST5 radio-ligand binding displaced at cone (μM) −<40%) | − (% SST5 radio-ligand binding displaced at cone (μM) −<40%) |
| CO[C@H]1[C@H](O)[C@@H](COCc2ccc(Cl)cc2)OC(OCc2ccc3ccccc3c2)[C@@H]1NC(=O)CCN (single isomer, unassigned) [Compound 95] |  |  |  |  | − (% SST5 radio-ligand binding displaced at cone (μM) −<40%) | − (% SST5 radio-ligand binding displaced at cone (μM) −<40%) |
| CO[C@H]1[C@H](O)[C@@H](COCc2ccc(-c3ccccc3)cc2)OC(OCc2ccc3ccccc3c2)[C@@H]1NC(=O)CCN (single isomer, unassigned) [Compound 96] |  |  |  |  | − (% SST5 radio-ligand binding displaced at cone (μM) −<40%) | − (% SST5 radio-ligand binding displaced at cone (μM) −<40%) |
| COC[C@H]1OC(OCc2ccc(Cl)cc2)[C@H](NC(=O)CN)[C@@H](OCc2ccccc2)[C@@H]1O (single isomer, unassigned) [Compound 168] |  |  |  |  | − (% SST5 radio-ligand binding displaced at cone (μM) −<40%) | − (% SST5 radio-ligand binding displaced at cone (μM) −<40%) |
| COC[C@H]1OC(OCc2ccc(Cl)cc2)[C@H](NC(=O)CN)[C@@H](OCc2ccccc2)[C@@H]1O (single isomer, unassigned) [Compound 169] |  |  |  |  | − (% SST5 radio-ligand binding displaced at cone (μM) −<40%) | − (% SST5 radio-ligand binding displaced at cone (μM) −<40%) |
